Data as given in PubChem BioAssay AID330 (DTP/NCI, 2004).
Where “and” joins values, the source holds several entries; their conditions need not be identical. Equal entries are not always repeated. Toxic doses and inconclusive results are not listed.

Tested on: P388 leukemia ip, CD2F1 mice, survival T/C
Assay: NCI In Vivo Anticancer Drug Screen. Data for tumor model P388 Leukemia (intraperitoneal) in CD2F1 (CDF1) mice
Conditions: endpoint: median survival time, higher = longer survival
How it was run: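 Mice carrying the transplanted tumor received test compound or vehicle. Survival was recorded in each group, and the value is the treated-group measurement divided by that of the vehicle-treated control group.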

[1] = dose: 100.0 mg/kg/injection, schedule: Q01DX001 (ip), vehicle: saline with Tween-80
[2] = dose: 50.0 mg/kg/injection, schedule: Q01DX005 (ip), vehicle: Klucel (hydroxypropylcellulose) (HPC)
[3] = dose: 100.0 mg/kg/injection, schedule: Q01DX005 (ip), vehicle: Klucel (hydroxypropylcellulose) (HPC)
[4] = dose: 200.0 mg/kg/injection, schedule: Q01DX005 (ip), vehicle: Klucel (hydroxypropylcellulose) (HPC)
[5] = dose: 60.0 mg/kg/injection, schedule: Q01DX005 (ip), vehicle: saline
[6] = dose: 50.0 mg/kg/injection, schedule: Q01DX005 (ip), vehicle: saline with Tween-80
[7] = dose: 100.0 mg/kg/injection, schedule: Q01DX005 (ip), vehicle: saline with Tween-80
[8] = dose: 200.0 mg/kg/injection, schedule: Q01DX005 (ip), vehicle: saline with Tween-80
[9] = dose: 60.0 mg/kg/injection, schedule: Q01DX005 (ip), vehicle: saline with Tween-80
[10] = dose: 120.0 mg/kg/injection, schedule: Q01DX005 (ip), vehicle: saline with Tween-80
[11] = dose: 240.0 mg/kg/injection, schedule: Q01DX005 (ip), vehicle: saline with Tween-80

Cc1ccc(-n2c(O)c(N=Nc3ccccc3Cl)c(=O)n(-c3ccc(Br)cc3)c2=S)cc1
T/C [1]: 98 % of control | T/C (dose: 200.0 mg/kg/injection, schedule: Q01DX001 (ip), vehicle: saline with Tween-80): 101 % of control | T/C (dose: 400.0 mg/kg/injection, schedule: Q01DX001 (ip), vehicle: saline with Tween-80): 96 % of control

C/C(=N\NC(=S)N1CCCC1)c1cccc(C)n1
T/C (dose: 12.5 mg/kg/injection, schedule: Q01DX005 (ip), vehicle: saline + Tween-80 + alcohol): 104 % of control and 106 % of control | T/C (dose: 25.0 mg/kg/injection, schedule: Q01DX005 (ip), vehicle: saline + Tween-80 + alcohol): 108 % of control and 113 % of control | T/C (dose: 50.0 mg/kg/injection, schedule: Q01DX005 (ip), vehicle: saline + Tween-80 + alcohol): 122 % of control

COc1cc([C@H]2c3cc(O)c(OC)cc3C[C@]3(O)[C@@H]2CO[C@@H]3O)ccc1O
T/C (dose: 4.75 mg/kg/injection, schedule: Q01DX005 (ip), vehicle: saline with Tween-80): 104 % of control | T/C (dose: 9.5 mg/kg/injection, schedule: Q01DX005 (ip), vehicle: saline with Tween-80): 95 % of control | T/C (dose: 19.0 mg/kg/injection, schedule: Q01DX005 (ip), vehicle: saline with Tween-80): 96 % of control | T/C (dose: 38.0 mg/kg/injection, schedule: Q01DX005 (ip), vehicle: saline with Tween-80): 99 % of control

c1ccc(C2NCCc3ccccc32)cc1 (stereo unspecified)
T/C [2]: 97 % of control | T/C [3]: 105 % of control | T/C [4]: 100 % of control

CCCCCCSC(=O)Nc1ccc(C)c(NC(=O)SCCCCCC)c1
T/C (dose: 50.0 mg/kg/injection, schedule: Q01DX009 (ip), vehicle: saline with Tween-80): 100 % of control | T/C (dose: 100.0 mg/kg/injection, schedule: Q01DX009 (ip), vehicle: saline with Tween-80): 100 % of control | T/C (dose: 200.0 mg/kg/injection, schedule: Q01DX009 (ip), vehicle: saline with Tween-80): 100 % of control

C[N+]1(Cc2ccccc2)CCCC(O)C1 (stereo unspecified)
T/C (dose: 7.5 mg/kg/injection, schedule: Q01DX005 (ip), vehicle: saline with Tween-80): 101 % of control | T/C (dose: 15.0 mg/kg/injection, schedule: Q01DX005 (ip), vehicle: saline with Tween-80): 93 % of control | T/C (dose: 30.0 mg/kg/injection, schedule: Q01DX005 (ip), vehicle: saline with Tween-80): 99 % of control

CCOc1ccc(C(C)c2cc3c(cc2OC)OCO3)cc1 (stereo unspecified)
T/C (dose: 15.0 mg/kg/injection, schedule: Q01DX005 (ip), vehicle: distilled water + Tween-80): 102 % of control | T/C (dose: 25.0 mg/kg/injection, schedule: Q01DX005 (ip), vehicle: distilled water + Tween-80): 100 % of control and 105 % of control (2×) | T/C (dose: 31.0 mg/kg/injection, schedule: Q01DX005 (ip), vehicle: distilled water + Tween-80): 118 % of control | T/C (dose: 62.5 mg/kg/injection, schedule: Q01DX005 (ip), vehicle: distilled water + Tween-80): 124 % of control | T/C (dose: 72.0 mg/kg/injection, schedule: Q01DX005 (ip), vehicle: distilled water + Tween-80): 118 % of control and 119 % of control | T/C (dose: 120.0 mg/kg/injection, schedule: Q01DX005 (ip), vehicle: distilled water + Tween-80): 112 % of control and 120 % of control | T/C (dose: 125.0 mg/kg/injection, schedule: Q01DX005 (ip), vehicle: distilled water + Tween-80): 154 % of control

CCc1nc(N)nc(N)c1-c1ccc(Cl)cc1.[O]=[Zn]
T/C (dose: 12.5 mg/kg/injection, schedule: Q04DX003 (ip), vehicle: Klucel (hydroxypropylcellulose) (HPC)): 106 % of control | T/C (dose: 25.0 mg/kg/injection, schedule: Q04DX003 (ip), vehicle: Klucel (hydroxypropylcellulose) (HPC)): 106 % of control | T/C (dose: 50.0 mg/kg/injection, schedule: Q04DX003 (ip), vehicle: Klucel (hydroxypropylcellulose) (HPC)): 113 % of control | T/C (dose: 100.0 mg/kg/injection, schedule: Q04DX003 (ip), vehicle: Klucel (hydroxypropylcellulose) (HPC)): 117 % of control

CS(=O)CC1OC2OC3C(CO)OC(OC4C(CO)OC(OC5C(CO)OC(OC6C(CO)OC(OC7C(CO)OC(OC8C(CO)OC(OC1C(O)C2O)C(O)C8O)C(O)C7O)C(O)C6O)C(O)C5O)C(O)C4O)C(O)C3O (stereo unspecified)
T/C [5]: 100 % of control | T/C (dose: 120.0 mg/kg/injection, schedule: Q01DX005 (ip), vehicle: saline): 106 % of control | T/C (dose: 240.0 mg/kg/injection, schedule: Q01DX005 (ip), vehicle: saline): 104 % of control

O=[N+]([O-])c1ccc(N2c3ccccc3SC23CCCC3)c([N+](=O)[O-])c1
T/C [6]: 100 % of control | T/C [7]: 100 % of control | T/C [8]: 99 % of control

CCCN(CCC)C(=O)Cn1cc([N+](=O)[O-])s/c1=N/C(=O)NCC
T/C (dose: 25.0 mg/kg/injection, schedule: Q01DX001 (ip), vehicle: saline with Tween-80): 97 % of control | T/C (dose: 50.0 mg/kg/injection, schedule: Q01DX001 (ip), vehicle: saline with Tween-80): 99 % of control | T/C [1]: 106 % of control

COC(=O)CCC(C)(c1ccc(O)cc1)c1ccc(O)cc1
T/C (dose: 100.0 mg/kg/injection, schedule: Q04DX003 (ip), vehicle: saline with Tween-80): 104 % of control | T/C (dose: 200.0 mg/kg/injection, schedule: Q04DX003 (ip), vehicle: saline with Tween-80): 90 % of control | T/C (dose: 400.0 mg/kg/injection, schedule: Q04DX003 (ip), vehicle: saline with Tween-80): 90 % of control

O=[N+]([O-])c1ccccc1N=Nc1c(O)sc2ccccc12
T/C [2]: 98 % of control | T/C [3]: 96 % of control | T/C [4]: 91 % of control

CCOC(=O)Nn1c(C)c(C(N)=O)c(C(=O)OC)c1C
T/C [9]: 100 % of control | T/C [10]: 96 % of control | T/C [11]: 103 % of control

CC1S/C(=N\N=C\c2ccc(Cl)cc2)N=C1c1c(O)c2ccccc2oc1=O (stereo unspecified)
T/C (dose: 60.0 mg/kg/injection, schedule: Q01DX005 (ip), vehicle: Klucel (hydroxypropylcellulose) (HPC)): 93 % of control | T/C (dose: 60.0 mg/kg/injection, schedule: Q02DX002 (ip), vehicle: Klucel (hydroxypropylcellulose) (HPC)): 91 % of control | T/C (dose: 120.0 mg/kg/injection, schedule: Q01DX005 (ip), vehicle: Klucel (hydroxypropylcellulose) (HPC)): 91 % of control | T/C (dose: 120.0 mg/kg/injection, schedule: Q02DX002 (ip), vehicle: Klucel (hydroxypropylcellulose) (HPC)): 94 % of control | T/C (dose: 240.0 mg/kg/injection, schedule: Q01DX005 (ip), vehicle: Klucel (hydroxypropylcellulose) (HPC)): 86 % of control | T/C (dose: 240.0 mg/kg/injection, schedule: Q02DX002 (ip), vehicle: Klucel (hydroxypropylcellulose) (HPC)): 94 % of control

Cn1c(=O)n2n(c1=O)C1(CCO)CCC2(CCO)CC1
T/C [6]: 99 % of control | T/C [7]: 103 % of control | T/C [8]: 100 % of control

CCOC1=N[C@H]2CCCC[C@H]2N1
T/C (dose: 15.0 mg/kg/injection, schedule: Q01DX005 (ip), vehicle: saline): 98 % of control | T/C (dose: 30.0 mg/kg/injection, schedule: Q01DX005 (ip), vehicle: saline): 96 % of control | T/C [5]: 102 % of control and 98 % of control

O=S(=O)(Nc1ccc(Cl)cc1)c1ccc(F)cc1
T/C [9]: 101 % of control | T/C [10]: 100 % of control | T/C [11]: 99 % of control

C=Cc1nc(=O)[nH]c(=O)[nH]1
T/C (dose: 100.0 mg/kg/injection, schedule: Q04DX002 (ip), vehicle: Klucel (hydroxypropylcellulose) (HPC)): 97 % of control | T/C (dose: 100.0 mg/kg/injection, schedule: Q04DX002 (ip), vehicle: saline): 101 % of control | T/C (dose: 200.0 mg/kg/injection, schedule: Q04DX002 (ip), vehicle: Klucel (hydroxypropylcellulose) (HPC)): 91 % of control | T/C (dose: 200.0 mg/kg/injection, schedule: Q04DX002 (ip), vehicle: saline): 108 % of control | T/C (dose: 400.0 mg/kg/injection, schedule: Q04DX002 (ip), vehicle: Klucel (hydroxypropylcellulose) (HPC)): 97 % of control | T/C (dose: 400.0 mg/kg/injection, schedule: Q04DX002 (ip), vehicle: saline): 98 % of control

Cc1cc2nc(C/C(=N/O)c3ccncc3)c(C/C(=N/O)c3ccncc3)nc2cc1C
T/C [9]: 93 % of control | T/C [10]: 91 % of control
